One compound from patent US8895746B2 (University of Central Florida Research Foundation, Inc., priority 2009, dated 2014) can be followed below.

In series [1] the test system is colocalization of Stat3 and EGFR and Stat3 nuclear translocation. Briefly: Immunofluorescence/confocal microscopy in EGF-stimulated NIH3T3/hEGFR. The format is cell-based, mouse. The settings on record: 50 μM pre-treatment 30 min, EGF 10 min. As to the method:
Cells were fixed with ice-cold methanol for 15 min, washed 3 times in PBS, permeabilized with 0.2% Triton® X-100 for 10 min, and further washed 3-4 times with PBS. Specimens were then blocked in 1% BSA for 30 min and incubated with EGFR (Santa Cruz) or Stat3 (Cell Signaling Tech) antibody at 1:50 dilution at 4° C. overnight. Subsequently, cells were rinsed 4-5 times in PBS, incubated with Alexafluor 546 rat antibody for EGFR detection and Alexa fluor 488 rabbit antibody for Stat3 detection (Invitrogen) for 1 h at room temperature in the dark. Specimens were then washed 5 times with PBS, covered with cover slides with […] mounting medium containing DAPI, and examined immediately under a Leica TCS SP5 confocal microscope (Germany) at appropriate wavelengths. Images were captured and processed using the Leica TCS SP 5 software.
Cells were then subjected to immunostaining for EGFR (red) and Stat3 (green) and analyzed by confocal microscopy for EGF-induced colocalization of Stat3 and EGFR and for Stat3 nuclear translocation, as previously performed (17). In the resting NIH3T3/hEGFR fibroblasts, EGFR (red) is widely localized at the plasma membrane, while Stat3 (green) is localized at both the plasma membrane and in the cytoplasm, with a minimal colocalization with EGFR at the plasma membrane and no visible presence in the nucleus (stained blue for DAPI) (FIG. 4A upper panel).

Series [2] deals with NIH3T3/v-Src, Panc-1 and MDA-MB-231 cells. In words: Colony survival assay. The format is cell-based, mouse, human. The settings on record: treated once. The protocol: This was performed as previously reported (39). […] Colonies were stained with crystal violet for 4 h and counted under phase-contrast microscope.
Cultured single-cells were untreated or treated once with S3I-201.1066 and allowed to grow until large colonies were visible, which were stained and enumerated.

In series [3] the test system is human breast cancer (MDA-MB-231) xenografts. The note with it: mouse, in vivo. An excerpt:
Wounds were made using pipette tips in monolayer cultures of cells in six-well plates. […] The migration of cells was visualized at a 10× magnification using an Axiovert 200 Inverted Fluorescence Microscope (Zeiss, Göttingen Germany), with pictures taken using a mounted Canon Powershot A640 digital camera (Canon USA, Lake Success, N.Y.). Cells that migrated into the denuded area were quantified. Mice and in vivo tumor studies-Six-week-old female athymic nude mice were purchased from Harlan and maintained in the institutional animal facilities approved by the American Association for Accreditation of Laboratory Animal Care. Athymic nude mice were injected subcutaneously in the left flank area with 5×10^6 human breast cancer MDA-MB-231 cells in 100 μL of PBS. After 5 to 10 days, tumors of a diameter of 3 mm were established. […] Tumor volume was calculated according to the formula V=0.52×a^2×b, where a, smallest superficial diameter, b, largest superficial diameter.

As to `Cc1ccc(S(=O)(=O)N(C)CC(=O)N(Cc2ccc(C3CCCCC3)cc2)c2ccc(C(=O)O)c(O)c2)cc1` [S3I-201.1066], the “EGF-stimulated colocalization between EGFR and Stat3 and Stat3 nuclear localization” value in series [1] was “strongly blocked”. Also, in series [2], the “number of colonies, colony survival” value is on record as “dose-dependent suppression”. For the same compound, the “toxicity in tumor-bearing mice” value in series [3] is reported as “no obvious sign of toxicity”.
